Common to all, as to assay type: cell-based, human
Assay [1] relates to CD8+ T-cells from HLA A2+ healthy donors. The experiment in a line: Priming of CD8+ T-cells from healthy donors, tetramer staining. As to conditions: three healthy donors, tetramers, compared to WT peptides. The method, then: To generate T-cell peptide lines, CD8 T-cells were purified from the PBMCs of HLA A2+ donors using CD8 microbeads according to the manufacturer's instructions (Miltenyi Biotech, Bergisch Gladbach, Germany). Purified CD8 cells (3×10^6) were co-incubated with autologous CD8neg cells (6-8×10^6) in 24 well plates in 2 mL of T-cell media, but with no IL-15. 25 μM of each peptide was used. The cultures had 50% of the media changed thrice weekly. Tetramer staining was performed as above, using 500,000 cells per tube. Each T-cell line was used in an IFNγ enzyme linked immunosorbent spot (ELISpot) assay with cell lines MDA-MB-231, melanoma MM909.24 and Saos-2. 50,000 T-cells and 15,000 cancer cells were used per well. Incubation was performed for 48 h, and the assay developed according the manufacturer's instructions (Mabtech, Nacka Strand, Sweden).
CPL assay of CR24 was performed as described above. Candidate peptide agonists were designed using the CR24 CPL and an online algorithm (wsb.warwick.ac.uk/wsbcToolsWebpage/user_cases.php). Priming of CD8 T-cells from healthy donors, tetramer staining and chromium release cytotoxicity assays were performed as described above.

Assay [2] relates to autologous melanoma cells. In words: Chromium release cytotoxicity assay of peptide primed T-cell lines. As to conditions: patient 37; compared to WT Melan A peptide primed T-cells.
The subject of assay [3] is CD8 T-cells from a renal cell carcinoma (RCC) and chronic lymphocytic leukaemia (CLL) patient. In words: Priming of CD8 T-cells from RCC and CLL patients, TAPI-0 assay or tetramer staining. As to conditions: primed 28 days. The source says: (§1) (FIG. 14A) CD8 T-cells from a renal cell carcinoma (RCC) and chronic lymphocytic leukaemia (CLL) patient were left unprimed or primed with […] (SEQ ID NO: 80) peptide for 28 days. […] (SEQ ID NO: 80) peptide for 28 days.

For a further assay, the system named is autologous cancer cells. In words: Killing of autologous cancer cells by primed CD8s (RCC and CLL patient). As to conditions: compared to unprimed T-cells.
Source text: as §1

The subject of assay [4] is CD8 T-cells from an acute myeloid leukaemia (AML) patient and two CLL patients. In words: Priming of CD8 T-cells from AML and CLL patients, IMP-2 tetramer. Conditions: primed 28 days, versus unprimed.
The subject of another assay is CLL cells. The experiment in a line: Killing assay with primed T-cells from CLL patient 3. Conditions: compared to IMP-2 primed CD8s.
Source text: as §1

The record followed here is patent publication US12053513B2, “Cancer-specific T-cell receptors” (UNIVERSITY COLLEGE CARDIFF CONSULTANTS LTD., priority 2018, dated 2024).

For “MTSAIGILPV (listed as Homo sapiens) [APL 5]”, the “priming of Melan A, BST2 and IMP2 T-cells” value is recorded as “most effective super-agonist” in assay [1] and “most effective of the candidate super-agonists at priming” in assay [1] (listed as MTSAIGVLVP). In addition, the “lysis of autologous melanoma cells by primed T-cells” value in assay [2] is “superior lysis”. Besides, the “MTSAIGILPV specific T-cells after priming” value in assay [3] is “presence”. Moreover, in the assay on autologous cancer cells, the “killing of autologous cancer cells by primed CD8s” value is given as “killed more autologous cancer cells than the unprimed T-cells”. Also, the “proportion of IMP-2 specific T-cells after priming” value in assay [4] is recorded as “induced a greater proportion of IMP-2 cells”. Also, the “killing of CLL cells by primed T-cells” value with CLL cells was “killed more CLL cells than the IMP-2 primed CD8s”.
As for “ITSAIGILPV (listed as Homo sapiens) [APL 2]”, the “priming of Melan A, BST2 and IMP2 T-cells” value in assay [1] is listed as “exhibiting effect across each donor”.
